Assay results: the supplement of paper PMC5579334
± gives the standard deviation of the averaged measurements.

Assays:
[1] = tested on: HSC1 (primary human Schwann cells); assay: drug sensitivity score (DSS, CellTox-Green cytotoxicity, 72 h) (DSS (dimensionless)); higher = more cytotoxic; extreme values may be limits of the assay
Procedure, shortened: (§1)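 MPNST cell lines and primary human Schwann cells were grown for 72 h at 37 °C in 384-well plates containing five 10-fold compound dilutions. CellTox-Green, added before seeding at a final 1:1000 dilution, gave fluorescence from DNA released by disrupted cells, and signals were scaled to vehicle and positive-control wells. Curves were fitted with a four-parameter logistic model. Drug sensitivity score and relative IC50 come from these fits, with IC50 censored at the top concentration.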

STS26T [2] = assay: as above
Procedure, shortened: as §1

S1507-2 [3] = assay: as above
Procedure, shortened: as §1

HS-PSS [4] = assay: as above
Procedure, shortened: as §1

[5] = tested on: HSC2 (primary human Schwann cells); assay: as above
Procedure, shortened: as §1

ST8814 [6] = assay: as above
Procedure, shortened: as §1

[7] = tested on: HSC1 (primary human Schwann cells); assay: drug sensitivity score (DSS, CellTiter-Glo viability, 72 h) (DSS (dimensionless)); higher = more sensitive; extreme values may be limits of the assay
Procedure, shortened: (§2)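 Viability of MPNST cell lines and primary human Schwann cells was read as CellTiter-Glo ATP luminescence after 72 h at 37 °C, 5% CO2, in 384-well plates seeded with 750–1000 cells per well. Each compound had been preprinted at five concentrations in 10-fold steps. Signals were scaled between vehicle and positive-control wells, duplicates averaged where present, and fitted with four-parameter logistic curves. Drug sensitivity score and relative IC50 (censored at the top concentration) come from those fits, and percent inhibition is taken at the top concentration.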

STS26T [8] = assay: as above
Procedure, shortened: as §2

S1507-2 [9] = assay: as above
Procedure, shortened: as §2

S462 [10] = assay: as above
Procedure, shortened: as §2

HS-PSS [11] = assay: as above
Procedure, shortened: as §2

[12] = tested on: HSC2 (primary human Schwann cells); assay: as above
Procedure, shortened: as §2

HS-Sch-2 [13] = assay: as above
Procedure, shortened: as §2

ST8814 [14] = assay: as above
Procedure, shortened: as §2

YST-1 [15] = assay: as above
Procedure, shortened: as §2

[16] = tested on: HSC1 (primary human Schwann cells); assay: % inhibition of CellTiter-Glo viability at highest tested concentration (72 h), relative to DMSO and benzethonium chloride controls; higher = more inhibition
Procedure, shortened: as §2

STS26T [17] = assay: as above
Procedure, shortened: as §2

S1507-2 [18] = assay: as above
Procedure, shortened: as §2

S462 [19] = assay: as above
Procedure, shortened: as §2

HS-PSS [20] = assay: as above
Procedure, shortened: as §2

[21] = tested on: HSC2 (primary human Schwann cells); assay: as above
Procedure, shortened: as §2

HS-Sch-2 [22] = assay: as above
Procedure, shortened: as §2

ST8814 [23] = assay: as above
Procedure, shortened: as §2

YST-1 [24] = assay: as above
Procedure, shortened: as §2

SMILES	drug sensitivity score [1]	drug sensitivity score (STS26T [2])	drug sensitivity score (S1507-2 [3])	drug sensitivity score (HS-PSS [4])	drug sensitivity score [5]	drug sensitivity score (ST8814 [6])	drug sensitivity score [7]	drug sensitivity score (STS26T [8])	drug sensitivity score (S1507-2 [9])	drug sensitivity score (S462 [10])	drug sensitivity score (HS-PSS [11])	drug sensitivity score [12]	drug sensitivity score (HS-Sch-2 [13])	drug sensitivity score (ST8814 [14])	drug sensitivity score (YST-1 [15])	% inhibition [16]	% inhibition (STS26T [17])	% inhibition (S1507-2 [18])	% inhibition (S462 [19])	% inhibition (HS-PSS [20])	% inhibition [21]	% inhibition (HS-Sch-2 [22])	% inhibition (ST8814 [23])	% inhibition (YST-1 [24])
Cc1cccc(-c2nn3c(c2-c2ccnc4ccc(C(N)=O)cc24)CCC3)n1 [Galunisertib] (max concentration tested 1000 nM)	0	0	0.0896 ± 0.13	0	0	0	0	0.276	0	0.00835 ± 0.012	0	0	0	0	0	6.58%	12.7%	9.64 ± 5.1%	5.62 ± 8.5%	3.21%	10.8%	-22%	-1.47%	-12.1%
CN1CC[C@H](c2c(O)cc(O)c3c(=O)cc(-c4ccccc4Cl)oc23)[C@H](O)C1 [Alvocidib] (max concentration tested 10000 nM)	8.24	10.1	2.61 ± 3.7	4.23	11.7	4.45	18	20.1	15.5 ± 0.93	21.1 ± 0.91	20.4	17.9	20.6	17.8	20.5	85.4%	95.8%	81.118 ± 0.0062%	99.41 ± 0.97%	83.7%	89.1%	101%	79.8%	97.8%
COc1cc(CCc2cc(NC(=O)c3ccc(N4CC(C)NC(C)C4)cc3)n[nH]2)cc(OC)c1 (configuration not stated) [AZD4547] (max concentration tested 1000 nM)	0	0	0.158 ± 0.22	0	0	0	3.09	0	1.28 ± 0.63	2.85 ± 0.75	0	0	1.94	0	0	22.4%	-2.98%	22.2 ± 3.5%	24.6 ± 2.2%	4.91%	4.39%	33.5%	9.11%	3.65%
